{"source": "patent US9181318B2", "about": "“Method of screening a drug such as insulin secretagogue” (JNC Corporation, priority 2009, dated 2015)", "system": "insulin-GLase-expressed MIN6 cells (mouse pancreatic β cells)", "experiment": "Secretion of insulin-GLase fusion protein from transformed MIN6 cells, luminescence (luciferase) activity in the medium", "format": "cell-based", "conditions": "glibenclamide in low glucose-modified KRHB buffer; aliquots taken 0-30 minutes; control 2 mM glucose; FIG. 9", "method": "Mouse pancreatic β cells, MIN6 strains, were cultured in high glucose DMEM (manufactured by Sigma) supplemented with 10% fetal calf serum (manufactured by Invitrogen) and 50 μM of 2-mercaptoethanol. The expression vector obtained in EXAMPLE 1-1 was transfected to the MIN6 cell line using LipofectAMINE 2000 (manufactured by Invitrogen). After the transfection, the cells were incubated in a CO2 incubator at 37° C. for 24 hours. The secretion expression of the fusion Gaussia luciferase protein in the transformant was confirmed by measuring the luminescence activity with a Luminometer AB2200 (manufactured by Atto Corporation) using coelenterazine as a luminescent substrate, in accordance with the method described in Biochem. Biophys. Res. Commun., 365, 96-101 (2007). As a result, the luminescence activity in the cultured medium by high glucose (20 mM glucose) stimulation to the transformed MIN6 cells increased by about 7 times as compared to that prior to the treatment (FIG. 1). […] Glibenclamide, which is a sulfonylurea type hypoglycemic agent, promotes the secretion of endogenous insulin to lower blood glucose levels. This promotion of insulin secretion was examined using the insulin-GLase-expressed MIN6 cells to assess the effect. […]", "data": [{"smiles": "COc1ccc(Cl)cc1C(=O)NCCc1ccc(S(=O)(=O)NC(=O)NC2CCCCC2)cc1", "note": "[glibenclamide, Glibenclamide]", "values": [{"measurement": "insulin secretion (luciferase activity of secreted insulin-GLase)", "value": "promoted"}]}]}
